{"source": "patent US20160199463A1", "about": "“HDAC2 DEFENDS VASCULAR ENDOTHELIUM FROM INJURY” (The Johns Hopkins University, priority 2014, published 2016)", "key": {"[1]": {"tested_on": "arginase activity in HAECs", "assay": "Arginase activity assay (urea production) in HAEC lysates", "assay_type": "cell-based, human", "settings": "30 minutes; nicotinamide 5 mmol/L, TSA 1 μmol/L", "description": "HAEC were lysed using RIPA buffer (50 mM of Tris.HCl, pH 7.5, 0.1 mM EDTA, 0.1% Triton X-100, and protease inhibitor), and centrifuged for 30 min at 14,000 g at 4° C. 50 μL (50-100 μg) of supernatant was added to 75 μl of 10 mM MnCl2 made in Tris-HCl (50 mM, pH 7.5) and heat activated by incubating at 55-60° C. for 10 min. 50 μL of L-Arginine that was prepared in 300 mM Tris-HCL, pH 9.7 were then added to the activated cell lysates to achieve final concentrations of 150 mM and incubated at 37° C. for 3 hrs with shaking. The reaction was stopped by adding 400 μL of an acid solution (H2SO4: H3PO4: H20=1:3:7). For colorimetric determination of urea, α-isonitrosopropiophenone (25 μL, 9% in ethanol) was added and further heated at 100° C. for 45 min. Samples were allowed to cool at room temperature in the dark for 10 min and urea concentration was determined by measuring absorbance at 550 nm using a spectrophotometer."}, "Arg2": {"tested_on": "Arg2", "assay": "Arg2 protein expression in HAECs (Western blot)", "assay_type": "cell-based, human", "settings": "for TSA (1 μmol/L) effect on Arg2 expression in pretreated cells: pretreatment with actinomycin D or cycloheximide (10 μg/mL)", "description": "(§1) After 48 hrs of HAEC cells transfection, cells were lysed in ice cold RIPA lysis buffer consisting of 20 mM Tris-HCl at pH 7.5, 150 mM NaCl, 1 mM EDTA, 1 mM EGTA, 1% NP40, 1% sodium deoxycholate, 1 mM Na3VO4, 2.5 mM sodium pyrophosphate, 1 mM 3-glycerophosphate, 1 μg/mL leupeptin, and a 1:1000 diluted protease inhibitor cocktail (Sigma). For immunoprecipitation studies, whole cell lysate lysates were centrifuged at 14,000×g and supernatants were precleared by incubation with Protein A/G-agarose beads for 2 h at 4° C. with rocking. Agarose beads were then pelleted by centrifugation at 1,000×g. FLAG-Arg2 in precleared lysates were immunoprecipitated by incubation overnight at 4° C. with rocking following addition of anti-FLAG antibody (10 μl). Immune complexes were eluted in 2×SDS sample buffer by boiling for 5 minutes before loading into SDS-PAGE. Western blotting analysis was performed by transferring the SDS gel onto a PVDF membrane and visualized using secondary antibodies conjugated to alkaline phosphatases."}, "Arg2 mRNA": {"tested_on": "Arg2 mRNA", "assay": "Arg2 mRNA in HAECs (RT-PCR, real-time PCR)", "assay_type": "cell-based, human", "description": "Total RNA was extracted from segments of mice aortas and HAEC using Trizol and PureLink (Invitrogen). RNA was then reverse transcribed with oligo dT primers to obtain cDNA and quantitative real time PCR (Applied Biosystems) was performed using SYBR Green Supermix mix (Applied Biosystems) whereas semiquantitative RTPCR was performed using conventional Biorad PCR machine and the following primer sets: Real Time PCR data are expressed as “fold change”, which is calculated as 2-ΔΔCt."}, "SIRT": {"tested_on": "SIRT", "settings": "cited from earlier work"}, "eNOS": {"tested_on": "eNOS", "assay": "eNOS expression in HAECs (immunoblot)", "assay_type": "cell-based, human", "settings": "1 μmol/L, 18 hours", "description": "as §1"}, "HDAC": {"tested_on": "HDAC", "settings": "cited from earlier work"}, "HDAC2": {"tested_on": "HDAC2", "settings": "low-dose; cited from earlier work"}}, "note": "“Also recorded” adds a separate entry of the source. Numbered stars: 1 amine (or outer) side, 2 acyl side, 3 side chain; on linkers, the order of the positions; unused ones are H or OH. Bridge positions count the residues as written; N and C are the ends. Square brackets hold non-standard residues; d marks the D form. Peptide text beside a SMILES is read from it. I, II: the chains in the order shown. Actinocin(9to1) = Cc1c2oc3c(C)ccc(C(=O)[*:1])c3nc-2c(C(=O)[*:2])c(N)c1=O; NMeV = CN[C@H](C(=O)O)C(C)C; Sar = CNCC(=O)O", "data": [{"smiles": "NC(=O)c1cccnc1", "note": "[Nicotinamide]", "values": [{"measurement": "HAEC arginase activity, short-term", "setting": "[1]", "result": "activating effect"}, {"measurement": "Arg2 protein levels", "setting": "Arg2; nicotinamide 5 mmol/L", "result": "no effect"}, {"measurement": "Arg2 mRNA expression", "setting": "Arg2 mRNA; nicotinamide 0.1 or 0.2 mmol/L, 18 hours", "result": "No changes"}, {"measurement": "Arg2 mRNA levels", "setting": "Arg2 mRNA; nicotinamide (5 mmol/L) as printed", "result": "no effect"}, {"measurement": "IC50", "setting": "SIRT", "result": "< 50", "unit": "µM"}]}, {"smiles": "COc1ccc(Cn2ccc3ccc(C(=O)NO)cc32)cc1", "note": "[PCI-34051]", "values": [{"measurement": "endothelial Arg2 expression, class-specific HDAC inhibitors", "setting": "Arg2", "result": "no substantial effects; also recorded: slight increase"}]}, {"smiles": "O=C(CCCCCCC(=O)Nc1ccccc1)NO", "note": "[SAHA, Suberoylanilide Hydroxamic Acid]", "values": [{"measurement": "eNOS expression", "setting": "eNOS", "result": "negligible effect"}, {"measurement": "HDAC classes blocked", "setting": "HDAC", "result": "10 nM; block Class I and Class II HDACs"}]}, {"smiles": "O=C(CCCCCN1C(=O)c2cccc3cccc(c23)C1=O)NO", "note": "[Scriptaid]", "values": [{"measurement": "Arg2 expression, broad-spectrum HDAC inhibitors", "setting": "Arg2; 1 μmol/L, 18 hours", "result": "upregulated"}, {"measurement": "eNOS expression", "setting": "eNOS", "result": "negligible effect"}]}, {"smiles": "Cc1c2oc3c(C)ccc(C(=O)N[C@@H]4C(=O)N[C@H](C(C)C)C(=O)N5CCC[C@H]5C(=O)N(C)CC(=O)N(C)[C@@H](C(C)C)C(=O)O[C@@H]4C)c3nc-2c(C(=O)N[C@@H]2C(=O)N[C@H](C(C)C)C(=O)N3CCC[C@H]3C(=O)N(C)CC(=O)N(C)[C@@H](C(C)C)C(=O)O[C@@H]2C)c(N)c1=O", "note": "[actinomycin D] (I: T[dV]P[Sar][NMeV] / II: T[dV]P[Sar][NMeV]; ester I:1-I:C, II:1-II:C; linker I:N-II:N via Actinocin(9to1))", "values": [{"measurement": "TSA (1 μmol/L) effect on Arg2 expression in pretreated cells", "setting": "Arg2", "result": "failed to increase"}, {"measurement": "OxLDL-induced rise in Arg2 mRNA levels", "setting": "Arg2 mRNA; with Actinomycin D", "result": "ablated"}]}, {"smiles": "C[C@@H]1C[C@@H]([C@H](O)CC2CC(=O)NC(=O)C2)C(=O)[C@@H](C)C1", "note": "[cycloheximide]", "values": [{"measurement": "TSA (1 μmol/L) effect on Arg2 expression in pretreated cells", "setting": "Arg2", "result": "failed to increase"}, {"measurement": "OxLDL-induced peak in Arg2 protein levels", "setting": "Arg2; with cycloheximide", "result": "ablated"}]}, {"smiles": "Cn1c(=O)c2[nH]cnc2n(C)c1=O", "note": "[theophylline, 1,3-dimethylxanthine]", "values": [{"measurement": "HDAC2 activity and expression in alveolar macrophages", "setting": "HDAC2", "result": "increases"}]}]}
